A short description of data set [1]: method code SF-AS, from Thiel, W. (1998). Structure and physicochemical properties of retigabine. Pharmazie, 53(12)865-868. To be noted: pH 7.4.
A short description of data set [2]: method code SF-AS, from DOI: 10.1128/aac.27.1.84, PMID: 2580479.
Data set [3] can be described thus: method code SF-HPLC, from DOI: 10.1021/jm300631e, PMID: 22734650. The following applies: pH 7.4.
A short description of data set [4]: method code SF-AS, from PMID: 17401091. To be noted: pH 7.4.
The nature of data set [5]: method code SF, from DOI: 10.1016/s0006-3495(89)82875-9, PMID: 2470429. The following applies: pH 7.3.
Data set [6] in a line: method code SF-HPLC, from DOI: 10.1248/cpb.32.1929. The following applies: pH 7.2.
Data set [7] can be described thus: method code SF-RC, from DOI: 10.1016/j.nucmedbio.2011.12.002, PMID: 22321533.
Assay in data set [8]: not given
This is another data set of the same source.

A short description of data set [9]: method code SF-NMR, from DOI: 10.1016/j.jpba.2012.12.010, PMID: 23298914. The following applies: pH 7.6.
Data set [10] is described as follows: method code SF-AS, from DOI: 10.1016/j.ejmech.2010.07.027, PMID: 20705371.
Data set [11] in a line: method code SF, from DOI: 10.1016/j.ijpharm.2011.07.043, PMID: 21839822. To be noted: pH 7.4.
Assay in data set [12]: not given
This is another data set of the same source.

Data set [13] in a line: method code SF-AS, from DOI: 10.1021/js960093b, PMID: 8897274. The following applies: pH 7.4.
The nature of data set [14]: method code SF-HPLC, from DOI: 10.1016/s0021-9673(99)01336-9, PMID: 10757301.
Assay in data set [15]: not given
This is another data set of the same source.

Data set [16] can be described thus: method code SF, from DOI: 10.1016/j.ejps.2016.06.024, PMID: 27373604. To be noted: pH 7.4.
Assay in data set [17]: not given
The source holds these as a separate data set.

A short description of data set [18]: method code SF-AS, from DOI: 10.1007/bf00500291, PMID: 4270072. The following applies: pH 7.4.
Assay in data set [19]: not given
This is another data set of the same source.

A short description of data set [20]: method code SF-AS, from Galdino, S.; Pitta, I.; Luc-Duc, C. (1986). 5-Benzylidene pyrrolones, furanones and thiopenones. II. Quantitative structure-antifungal correlation. Farmaco [Sci], 41(1)59-68.
Data set [21] can be described thus: method code SF-AS, from DOI: 10.1016/s0022-3565(25)32601-7, PMID: 7194909.
Data set [22] can be described thus: method code SF-FL, from DOI: 10.1248/cpb.27.638, PMID: 554741.
Assay in data set [23]: not given
The source holds these as a separate data set.

Assay in data set [24]: not given
The source holds these as a separate data set.

Data set [25] in a line: method code SF-FL, from DOI: 10.1002/jps.2600810104, PMID: 1352350.
Assay in data set [26]: not given
This is another data set of the same source.

Data set [27] in a line: method code SF-RC, from DOI: 10.1016/j.bmc.2013.04.077, PMID: 23712084. The following applies: pH 7.4.
A short description of data set [28]: method code SF-ILT, from DOI: 10.1002/ardp.19763091008, PMID: 1008678.
Assay in data set [29]: not given
The source holds these as a separate data set.

Data set [30] in a line: method code SF-GLC, from Jha, T.; Debnath, A.; Mazumdar, A.; Sengupta, C.; De, A. (1986). Hansch analysis of antineoplastic agents, 5-N-substituted-2-p-substituted benzenesulfonyl-L-glutamines. Ind. J. Chem., Sect. B, ….
Assay in data set [31]: not given
The source holds these as a separate data set.

A short description of data set [32]: method code SF, from DOI: 10.1021/jm061062o.s001, PMID: 17326614. The following applies: pH 7.4.
The nature of data set [33]: method code SF-RC, from DOI: 10.1016/s0969-8051(01)00199-8, PMID: 11395310. The following applies: pH 7.4.
Data set [34] is described as follows: method code SF, from DOI: 10.1016/s0223-5234(03)00044-8, PMID: 12750026. To be noted: pH 7.4.
The nature of data set [35]: method code SF-HPLC, from DOI: 10.1023/a:1013643013244, PMID: 11837695. To be noted: pH 6.4.
Data set [36] can be described thus: method code SF-AS, from DOI: 10.3109/00498258909043190, PMID: 2618089. The following applies: pH 10.8.
The nature of data set [37]: method code SF-RC, from DOI: 10.1021/acs.jmedchem.6b00849, PMID: 27690428. To be noted: pH 7.4.
Data set [38] can be described thus: method code SF, from Tomlin, C. (2000). The Pesticide Manual (12th Edition) British Crop Protection Council, Bracknell.
Assay in data set [39]: not given
This is another data set of the same source.

Assay in data set [40]: not given
This is another data set of the same source.

Assay in data set [41]: not given
The source holds these as a separate data set.

Data set [42] in a line: method code SF, from DOI: 10.1016/j.ejmech.2012.08.015, PMID: 22960698.

For `CCOC(=O)Nc1ccc(NCc2ccc(F)cc2)cc1N`, in data set [1], the logD (usually the decadic logarithm of the distribution of all forms, ionised or not, between an organic phase and buffer at a given pH) came out at 2.17.

As to `CN(C)Cc1ccccc1Sc1ccc(I)cc1CO`, the lipophilicity (logP) – broadly, the decadic logarithm of the partition coefficient of the neutral form, usually between octanol and water – was determined as 2.67.

Take `CO[C@@]1(NC(=O)CSCC#N)C(=O)N2C(C(=O)O)=C(CSc3nnnn3C)CS[C@@H]21`: in data set [2], the logP is -0.6.

As for `C=CCC1(c2cccc(C3(C(F)(F)F)N=N3)c2)C(=O)NC(=O)N(C)C1=O` (stereo not drawn), in [3], the logD came out at 3.79.

The molecule `CN(C)c1ncc(C=Cc2nc3ccc(OCCF)cc3o2)s1` gave a logD in data set [4] of 1.75.

As for `COC(=O)C1=C(C)NC(C)=C([N+](=O)[O-])C1c1ccccc1C(F)(F)F` (stereo not drawn), the logD in data set [5] amounted to 2.46.

In the case of `COC(COC(N)=O)C1=C(N2CC2)C(=O)C(C)=C(N2CC2)C1=O` (stereo not drawn), in data set [6], the logD came to 0.

With `Cc1cn(C2CC(O)C(CO)O2)c(=O)n(Cc2cn(CCF)nn2)c1=O` (stereo not drawn), the logP in data set [7] was -1.22.

In the case of `Cc1ccc2oc(-c3ccccc3C(=O)O)c(Br)c2c1`, in data set [8], the logP was 5.19.

Molecule `COC(=O)C(N)Cc1cc(I)c(Oc2ccc(O)c(I)c2)c(I)c1` (stereo not drawn) returned a logD in data set [9] of 2.6.

In data set [10], `CC(C)(C)c1ccc(O)c(CN2CCOCC2)c1` had a logP of 1.96.

In [11], `CCCCCCCCNC(=O)c1ccccc1O` yielded a logD of 3.7.

In data set [12], `Cc1c(-c2ccc(OCCCc3c[nH]cn3)cc2)no[n+]1[O-]` displayed a logP of 2.4.

Consider `N#CN=C1NC(=O)C(c2ccccc2)(c2ccccc2)N1`, for which the logD in data set [13] was 1.16.

For the molecule `CO/N=C(\C(=O)N[C@@H]1C(=O)N2C(C(=O)O)=C(COC(N)=O)CS[C@H]12)c1ccco1`, the logP in data set [14] is -0.17.

`O=C(O)Cc1ccc2c(c1)C(=O)c1ccccc1CS2` gave a logP in data set [15] of 2.97.

As for `NC(=O)C1c2ccccc2CCc2ccccc21`, the logD in [16] came out at 1.67.

Regarding `O=C(O)Cc1ccc2c(c1O)C(=O)c1c(O)cccc1C2`, the logP in data set [17] is 3.1.

`CN1C(=O)CN=C(C2=CCCCC2)c2cc(Cl)ccc21` yielded a logD in data set [18] of 2.76.

The molecule `c1cc2ccc1CCc1ccc(cc1)CC2` registered a lipophilicity (logP) in data set [19] of 4.61.

Turning to `CCOC(=O)C1=C(C)O/C(=C\c2ccc(OC)cc2)C1=O`, the logP in data set [20] came to 2.96.

`OC1(c2ccc(Cl)cc2)c2ccccc2C2=NCCN21` (stereo not drawn) had a logP in data set [21] of 1.81.

In data set [22], `c1ccc(Nc2cccc3ccccc23)cc1` returned a lipophilicity (logP) of 4.2.

As to `Cc1nc(N)nc(N)c1C12CC3CC(CC(C3)C1)C2`, the lipophilicity (logP) in data set [23] was determined as 2.64.

In turn, `CCc1cccc(C)c1N(C(=O)CCl)C(C)COC` (stereo not drawn) showed a logP in [24] of 3.09.

In turn, `CN1CCN=C(c2ccccc2)c2cc(Cl)ccc21` returned a logP in [25] of 3.3.

As to `COc1ccc(C(=O)NNC(=O)c2ccc(OC)cc2)cc1`, the logP in [26] amounted to 1.55.

`O=C(NCCCCCF)Oc1cccc(C2=NCCO2)c1`: in data set [27], the logD came out at 2.33.

In turn, `CCNC(=O)C1C2C=CC(C2)C1C(=O)N(CC)CC` (stereo not drawn) registered a logP in [28] of 0.99.

For the molecule `COc1ccc2c(c1)OCC2NC(=O)CN1CCCC1` (stereo not drawn), in data set [29], the logP was found to be 1.92.

Take `CCCNC(=O)CCC(NS(=O)(=O)c1ccc(C)cc1)C(=O)O` (stereo not drawn): the logP in data set [30] was 0.13.

With `CCOP(=S)(NC(C)C)Oc1ccccc1C(=O)OC(C)C` (stereo not drawn), the logP in [31] was 3.7.

In data set [32], `CS(=O)(=O)CCN(CCBr)c1cc(C(=O)NCC(O)CO)c([N+](=O)[O-])cc1[N+](=O)[O-]` (stereo not drawn) gave a pH-dependent lipophilicity (logD) of -0.05.

`CCN1CCC[C@H]1CNC(=O)c1c(OC)ccc(I)c1O`: the pH-dependent lipophilicity (logD) in data set [33] worked out at 2.85.

As to `CNC(=O)Oc1ccc2c(c1)C1(C)CCN(C)C1N2C` (stereo not drawn), in data set [34], the logD is 0.97.

In data set [35], `CCCN1C(=O)CCC(N2C(=O)c3ccccc3C2=O)C1=O` (stereo not drawn) returned a logD of 2.11.

`O=C(Cn1c(=O)sc2ccc(Cl)cc21)N1CCN(CCO)CC1` gave a logD in [36] of 1.04.

Take `N#Cc1ccc(N(Cc2ccc(I)cc2)n2cnnc2)cc1`: the log distribution coefficient (logD) in data set [37] was 2.48.

In data set [38], `COCC(=O)N(c1c(C)cccc1C)C(C)C(=O)OC` (racemic) came in with a logP of 1.75.

In turn, `CCCN(CCOc1c(Cl)cc(Cl)cc1Cl)C(=O)n1ccnc1` returned a logP in [39] of 4.1.

Molecule `CCN1C=CC(=C2C(=O)c3ccc(Cl)cc3C2=O)C=C1` registered a logP in data set [40] of 2.76.

As to `CC(C)(C)C(O)[C@H](Cc1ccc(Cl)cc1)n1cncn1` (stereo in doubt), the lipophilicity (logP) in data set [41] was 3.26.

On to `O=C(CC1OC(=O)c2ccccc21)c1ccc(Cl)c(Cl)c1` (stereo not drawn), for which the logP in data set [42] is 4.24.

Source of the values: the SangsterLogP compilation.
